Our source for the % of control and % of engagement values is ChEMBL document CHEMBL5465560, “Selectivity Literature for EUbOPEN Chemogenomic Library” (2024).

Experiment [1] concerns the target Receptor-interacting serine/threonine-protein kinase 2 (Homo sapiens, UniProt O43353). Put plainly: Selectivity interaction (ProQinase) EUB0000171b RIPK2.
Experiment [2] concerns the target Interferon-induced, double-stranded RNA-activated protein kinase (Homo sapiens) (UniProt P19525). Put plainly: Selectivity interaction (Ambit KINOMEscan and KiNATiv profiling in Jurkat cells) EUB0000090b EIF2AK2. It is filed as cell-based. The note with it: at 1 µM.
Experiment [3] has as its target Fibroblast growth factor receptor 1 (Homo sapiens, UniProt P11362). Put plainly: Selectivity interaction (KinomeScan (DiscoverX)) EUB0000092b FGFR1. The note with it: at 10 µM.
Experiment [4] addresses Casein kinase I isoform epsilon (Homo sapiens, UniProt P49674). The experiment is described as follows: Selectivity interaction (KinomeScan (DiscoverX)) EUB0001619a CSNK1E. The note with it: at 1 µM.
Experiment [5] deals with Rho-associated protein kinase 1 (Homo sapiens) (UniProt Q13464). The experiment is described as follows: Selectivity interaction (KinomeScan (DiscoverX)) EUB0001619a ROCK1. The note with it: at 1 µM.
Sequence of Rho-associated protein kinase 1 (Homo sapiens) (Q13464 2-1354 limits assumed): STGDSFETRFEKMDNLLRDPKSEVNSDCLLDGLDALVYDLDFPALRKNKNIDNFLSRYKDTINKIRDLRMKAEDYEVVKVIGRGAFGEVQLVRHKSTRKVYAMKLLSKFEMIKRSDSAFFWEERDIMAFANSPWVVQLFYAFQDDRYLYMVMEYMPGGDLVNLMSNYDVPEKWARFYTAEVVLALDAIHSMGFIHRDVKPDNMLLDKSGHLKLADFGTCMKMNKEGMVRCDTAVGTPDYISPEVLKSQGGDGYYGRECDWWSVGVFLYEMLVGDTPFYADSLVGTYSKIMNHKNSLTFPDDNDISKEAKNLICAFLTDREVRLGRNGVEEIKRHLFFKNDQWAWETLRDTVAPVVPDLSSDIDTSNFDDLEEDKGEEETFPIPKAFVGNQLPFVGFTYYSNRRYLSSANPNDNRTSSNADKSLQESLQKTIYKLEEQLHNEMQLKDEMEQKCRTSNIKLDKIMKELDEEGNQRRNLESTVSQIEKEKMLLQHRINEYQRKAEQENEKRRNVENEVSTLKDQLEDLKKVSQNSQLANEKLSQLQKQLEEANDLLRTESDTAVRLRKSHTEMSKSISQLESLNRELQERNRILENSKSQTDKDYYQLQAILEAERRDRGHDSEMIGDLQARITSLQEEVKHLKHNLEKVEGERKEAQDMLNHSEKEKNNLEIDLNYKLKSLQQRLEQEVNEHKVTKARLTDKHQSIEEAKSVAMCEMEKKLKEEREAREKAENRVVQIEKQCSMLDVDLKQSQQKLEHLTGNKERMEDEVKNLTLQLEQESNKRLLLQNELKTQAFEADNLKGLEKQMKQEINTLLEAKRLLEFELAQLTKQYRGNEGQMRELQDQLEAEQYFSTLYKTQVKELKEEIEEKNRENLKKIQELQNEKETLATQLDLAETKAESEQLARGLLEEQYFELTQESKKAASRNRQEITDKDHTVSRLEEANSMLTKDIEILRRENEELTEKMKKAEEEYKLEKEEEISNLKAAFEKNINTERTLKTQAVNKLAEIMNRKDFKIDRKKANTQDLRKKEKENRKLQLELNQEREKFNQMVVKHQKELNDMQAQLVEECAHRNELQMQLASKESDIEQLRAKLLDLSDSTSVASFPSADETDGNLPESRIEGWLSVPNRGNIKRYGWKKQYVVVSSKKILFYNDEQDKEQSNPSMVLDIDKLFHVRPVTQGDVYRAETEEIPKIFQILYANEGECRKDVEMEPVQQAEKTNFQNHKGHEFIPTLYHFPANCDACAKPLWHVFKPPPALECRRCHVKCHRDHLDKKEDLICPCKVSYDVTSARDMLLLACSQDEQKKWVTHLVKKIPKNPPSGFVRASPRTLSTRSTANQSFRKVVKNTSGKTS
Experiment [6] concerns the target T1, Serine/threonine-protein kinase TAO2 (Homo sapiens) (UniProt Q9UL54).
T1 sequence (whole entry): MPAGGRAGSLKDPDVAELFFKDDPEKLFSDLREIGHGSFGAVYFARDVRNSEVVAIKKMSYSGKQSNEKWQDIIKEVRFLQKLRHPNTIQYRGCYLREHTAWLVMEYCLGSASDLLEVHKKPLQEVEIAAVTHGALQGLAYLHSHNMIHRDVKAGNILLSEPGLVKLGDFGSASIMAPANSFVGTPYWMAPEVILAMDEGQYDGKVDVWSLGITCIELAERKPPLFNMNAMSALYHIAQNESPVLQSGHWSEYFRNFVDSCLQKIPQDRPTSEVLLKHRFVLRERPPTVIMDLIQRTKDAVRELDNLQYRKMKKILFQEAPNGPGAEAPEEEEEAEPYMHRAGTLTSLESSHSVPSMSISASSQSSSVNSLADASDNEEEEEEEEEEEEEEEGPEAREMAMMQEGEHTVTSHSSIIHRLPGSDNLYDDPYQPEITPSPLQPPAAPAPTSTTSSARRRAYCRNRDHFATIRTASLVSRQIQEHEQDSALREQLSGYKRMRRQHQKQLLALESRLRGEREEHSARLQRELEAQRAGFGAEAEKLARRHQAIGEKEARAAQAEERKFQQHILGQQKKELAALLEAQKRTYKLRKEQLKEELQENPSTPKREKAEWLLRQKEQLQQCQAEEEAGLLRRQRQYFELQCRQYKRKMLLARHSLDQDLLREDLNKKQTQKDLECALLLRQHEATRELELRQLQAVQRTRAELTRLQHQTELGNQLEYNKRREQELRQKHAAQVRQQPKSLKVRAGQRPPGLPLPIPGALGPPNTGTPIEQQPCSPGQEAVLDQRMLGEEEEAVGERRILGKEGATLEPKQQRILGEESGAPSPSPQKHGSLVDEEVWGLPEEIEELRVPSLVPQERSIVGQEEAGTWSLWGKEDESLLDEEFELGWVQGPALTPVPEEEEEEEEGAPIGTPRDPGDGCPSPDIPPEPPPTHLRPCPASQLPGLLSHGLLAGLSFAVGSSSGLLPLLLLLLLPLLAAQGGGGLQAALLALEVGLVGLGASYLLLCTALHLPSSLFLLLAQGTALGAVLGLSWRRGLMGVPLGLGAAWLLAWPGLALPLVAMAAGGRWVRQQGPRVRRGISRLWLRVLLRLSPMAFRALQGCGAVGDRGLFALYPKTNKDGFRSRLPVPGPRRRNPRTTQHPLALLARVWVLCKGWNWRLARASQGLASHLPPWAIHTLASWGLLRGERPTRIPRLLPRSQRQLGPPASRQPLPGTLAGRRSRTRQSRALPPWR
Put plainly: Selectivity interaction (Kinase panel (KiNativ target engagement assay in Jurkat cells)) EUB0001635a TAOK2. In kind it is cell-based. The note with it: Selectivity number of off-targets 0.0, Selectivity number of targets 233.0, Source Knowledge https://www.sciencedirect.com/science/article/pii/S2451945619300674?via%3Dihub, at 1 µM.

In experiment [7] the target is T2, Mitogen-activated protein kinase kinase kinase 3 (Homo sapiens) (UniProt Q99759).
T2 sequence (whole entry): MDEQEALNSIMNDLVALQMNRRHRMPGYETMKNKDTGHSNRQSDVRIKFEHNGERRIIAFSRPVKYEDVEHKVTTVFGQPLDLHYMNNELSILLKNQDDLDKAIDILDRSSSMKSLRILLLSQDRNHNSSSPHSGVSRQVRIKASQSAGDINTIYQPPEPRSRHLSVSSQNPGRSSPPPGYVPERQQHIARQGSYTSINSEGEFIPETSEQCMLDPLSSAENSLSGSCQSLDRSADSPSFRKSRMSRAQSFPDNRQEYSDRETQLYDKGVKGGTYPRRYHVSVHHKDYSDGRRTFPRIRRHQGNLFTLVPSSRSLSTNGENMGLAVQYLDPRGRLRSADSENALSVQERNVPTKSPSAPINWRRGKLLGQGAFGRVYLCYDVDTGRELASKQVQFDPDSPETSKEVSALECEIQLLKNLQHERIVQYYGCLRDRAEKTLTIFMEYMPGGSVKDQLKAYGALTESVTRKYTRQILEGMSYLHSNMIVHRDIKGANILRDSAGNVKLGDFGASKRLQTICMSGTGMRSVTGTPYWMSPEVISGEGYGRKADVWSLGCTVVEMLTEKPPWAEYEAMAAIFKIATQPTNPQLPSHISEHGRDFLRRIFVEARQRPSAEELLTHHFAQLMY
The experiment is described as follows: Selectivity interaction (KinomeScan (DiscoverX)) EUB0000618a MAP3K3. The note with it: at 10 µM.

Experiment [8] addresses T3, Serine/threonine-protein kinase RIO3 (Homo sapiens) (UniProt O14730).
T3 sequence (whole entry): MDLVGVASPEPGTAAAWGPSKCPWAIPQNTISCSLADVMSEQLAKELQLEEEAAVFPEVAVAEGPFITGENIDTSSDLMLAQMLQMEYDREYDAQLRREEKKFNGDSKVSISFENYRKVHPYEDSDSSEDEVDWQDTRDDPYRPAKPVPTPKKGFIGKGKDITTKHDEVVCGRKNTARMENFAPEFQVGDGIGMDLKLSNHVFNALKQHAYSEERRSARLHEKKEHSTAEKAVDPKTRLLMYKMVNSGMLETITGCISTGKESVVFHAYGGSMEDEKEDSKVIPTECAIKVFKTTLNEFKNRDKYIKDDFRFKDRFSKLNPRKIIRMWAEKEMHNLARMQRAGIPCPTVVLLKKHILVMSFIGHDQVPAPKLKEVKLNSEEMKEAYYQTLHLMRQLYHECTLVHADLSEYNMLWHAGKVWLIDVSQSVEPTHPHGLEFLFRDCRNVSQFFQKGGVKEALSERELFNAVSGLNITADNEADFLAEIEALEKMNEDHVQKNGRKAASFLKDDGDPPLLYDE
The experiment is described as follows: Selectivity interaction (KinomeScan (DiscoverX)) EUB0000618a RIOK3. The note with it: at 10 µM.

Experiment [9] has as its target Homeodomain-interacting protein kinase 2 (Homo sapiens, UniProt Q9H2X6). The experiment is described as follows: Selectivity interaction (KinomeScan (DiscoverX)) EUB0000618a HIPK2. The note with it: at 10 µM.

Sequence of Receptor-interacting serine/threonine-protein kinase 2 (O43353 whole entry): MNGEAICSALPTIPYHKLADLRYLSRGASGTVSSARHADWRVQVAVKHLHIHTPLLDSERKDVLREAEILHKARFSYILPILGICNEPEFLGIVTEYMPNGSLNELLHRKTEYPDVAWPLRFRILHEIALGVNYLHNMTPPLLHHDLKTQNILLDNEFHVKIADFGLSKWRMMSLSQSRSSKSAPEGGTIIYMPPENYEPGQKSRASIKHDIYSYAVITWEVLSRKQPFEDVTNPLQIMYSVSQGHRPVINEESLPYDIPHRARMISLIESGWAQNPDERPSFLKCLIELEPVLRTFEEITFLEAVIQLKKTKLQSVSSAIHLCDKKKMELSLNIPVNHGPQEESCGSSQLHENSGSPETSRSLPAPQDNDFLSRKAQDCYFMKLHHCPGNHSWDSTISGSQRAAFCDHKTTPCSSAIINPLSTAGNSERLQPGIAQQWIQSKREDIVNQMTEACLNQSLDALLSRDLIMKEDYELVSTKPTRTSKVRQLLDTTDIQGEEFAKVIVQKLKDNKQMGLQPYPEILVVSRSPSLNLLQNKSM
Sequence of Interferon-induced, double-stranded RNA-activated protein kinase (Homo sapiens) (P19525 whole entry): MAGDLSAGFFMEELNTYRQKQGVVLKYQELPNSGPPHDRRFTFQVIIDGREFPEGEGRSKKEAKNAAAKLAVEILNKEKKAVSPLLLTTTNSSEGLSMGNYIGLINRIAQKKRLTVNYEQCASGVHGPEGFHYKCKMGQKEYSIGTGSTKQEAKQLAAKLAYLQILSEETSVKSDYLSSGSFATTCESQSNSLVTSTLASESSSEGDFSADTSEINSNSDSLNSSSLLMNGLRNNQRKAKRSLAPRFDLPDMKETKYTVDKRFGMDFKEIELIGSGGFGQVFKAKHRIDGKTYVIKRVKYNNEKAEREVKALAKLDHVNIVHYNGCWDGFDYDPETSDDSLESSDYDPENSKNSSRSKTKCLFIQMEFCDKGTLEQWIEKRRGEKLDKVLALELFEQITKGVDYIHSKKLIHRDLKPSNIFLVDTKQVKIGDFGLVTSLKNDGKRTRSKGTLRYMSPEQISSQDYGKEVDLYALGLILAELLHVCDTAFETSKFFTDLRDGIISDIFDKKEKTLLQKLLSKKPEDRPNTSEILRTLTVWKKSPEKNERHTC
Sequence of Casein kinase I isoform epsilon (P49674 whole entry, looked up, canonical isoform): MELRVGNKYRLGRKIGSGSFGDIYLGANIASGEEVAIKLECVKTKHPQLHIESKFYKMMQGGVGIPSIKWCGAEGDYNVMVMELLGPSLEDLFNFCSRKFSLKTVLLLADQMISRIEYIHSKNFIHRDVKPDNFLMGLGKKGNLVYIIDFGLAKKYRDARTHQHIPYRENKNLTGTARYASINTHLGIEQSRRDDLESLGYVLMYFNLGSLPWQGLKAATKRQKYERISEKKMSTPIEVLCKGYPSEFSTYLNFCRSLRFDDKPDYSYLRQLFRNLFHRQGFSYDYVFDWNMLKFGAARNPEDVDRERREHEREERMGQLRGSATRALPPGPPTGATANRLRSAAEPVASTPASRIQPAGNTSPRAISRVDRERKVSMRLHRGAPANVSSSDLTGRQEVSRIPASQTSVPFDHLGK
Sequence of Fibroblast growth factor receptor 1 (P11362 22-822 limits assumed): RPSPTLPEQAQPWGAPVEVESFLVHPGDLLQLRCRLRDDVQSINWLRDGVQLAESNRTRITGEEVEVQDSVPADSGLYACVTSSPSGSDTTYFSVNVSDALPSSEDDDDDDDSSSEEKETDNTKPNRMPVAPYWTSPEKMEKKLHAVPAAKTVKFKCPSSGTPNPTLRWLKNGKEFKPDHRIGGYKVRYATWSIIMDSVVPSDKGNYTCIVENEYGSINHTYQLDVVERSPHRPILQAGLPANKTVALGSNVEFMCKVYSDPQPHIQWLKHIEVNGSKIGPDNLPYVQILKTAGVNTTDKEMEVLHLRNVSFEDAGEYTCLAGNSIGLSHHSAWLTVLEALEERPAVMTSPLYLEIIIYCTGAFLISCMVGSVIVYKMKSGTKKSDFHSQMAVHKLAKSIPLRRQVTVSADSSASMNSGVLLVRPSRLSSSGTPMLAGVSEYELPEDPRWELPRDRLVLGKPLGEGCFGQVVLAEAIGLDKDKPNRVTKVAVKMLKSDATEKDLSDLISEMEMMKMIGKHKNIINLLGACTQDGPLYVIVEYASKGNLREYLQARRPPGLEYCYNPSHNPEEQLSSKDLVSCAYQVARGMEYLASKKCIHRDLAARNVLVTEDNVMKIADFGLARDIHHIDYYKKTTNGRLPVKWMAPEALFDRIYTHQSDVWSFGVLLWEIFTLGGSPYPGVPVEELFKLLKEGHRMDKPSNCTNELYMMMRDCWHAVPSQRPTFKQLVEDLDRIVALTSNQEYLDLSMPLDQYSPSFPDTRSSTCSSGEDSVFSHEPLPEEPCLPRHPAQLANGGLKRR
Sequence of Homeodomain-interacting protein kinase 2 (Q9H2X6 whole entry, looked up): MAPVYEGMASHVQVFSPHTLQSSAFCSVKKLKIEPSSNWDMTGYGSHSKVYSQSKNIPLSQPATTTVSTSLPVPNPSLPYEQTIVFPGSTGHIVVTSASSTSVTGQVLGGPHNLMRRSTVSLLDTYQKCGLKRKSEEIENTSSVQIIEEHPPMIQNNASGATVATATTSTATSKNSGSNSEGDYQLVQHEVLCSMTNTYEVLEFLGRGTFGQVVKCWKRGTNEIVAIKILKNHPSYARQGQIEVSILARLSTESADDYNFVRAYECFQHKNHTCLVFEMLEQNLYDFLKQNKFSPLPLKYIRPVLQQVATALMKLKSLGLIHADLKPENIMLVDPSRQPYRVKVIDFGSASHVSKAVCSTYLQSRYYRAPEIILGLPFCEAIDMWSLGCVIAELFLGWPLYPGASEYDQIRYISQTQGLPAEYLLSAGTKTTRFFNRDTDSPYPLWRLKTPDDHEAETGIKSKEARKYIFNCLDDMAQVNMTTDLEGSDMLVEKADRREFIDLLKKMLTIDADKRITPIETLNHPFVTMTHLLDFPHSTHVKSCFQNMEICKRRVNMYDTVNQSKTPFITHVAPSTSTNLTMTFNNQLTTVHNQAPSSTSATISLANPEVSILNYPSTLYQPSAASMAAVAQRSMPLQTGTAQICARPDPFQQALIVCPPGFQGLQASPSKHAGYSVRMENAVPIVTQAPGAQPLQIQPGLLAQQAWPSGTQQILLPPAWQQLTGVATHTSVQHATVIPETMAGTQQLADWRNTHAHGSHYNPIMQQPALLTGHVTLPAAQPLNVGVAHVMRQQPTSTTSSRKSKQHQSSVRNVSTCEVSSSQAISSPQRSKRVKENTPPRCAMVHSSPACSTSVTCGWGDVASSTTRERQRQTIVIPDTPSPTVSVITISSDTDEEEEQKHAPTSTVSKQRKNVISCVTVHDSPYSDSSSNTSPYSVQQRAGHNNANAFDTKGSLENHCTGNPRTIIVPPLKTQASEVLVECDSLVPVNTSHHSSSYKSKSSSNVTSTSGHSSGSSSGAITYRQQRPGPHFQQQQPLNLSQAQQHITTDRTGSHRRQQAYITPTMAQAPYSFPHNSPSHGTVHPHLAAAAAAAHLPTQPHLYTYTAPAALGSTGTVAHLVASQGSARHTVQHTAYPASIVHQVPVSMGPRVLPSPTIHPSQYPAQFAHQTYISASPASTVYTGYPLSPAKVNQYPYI

Regarding `C=CC(=O)Nc1cccc(C(=O)Nc2ccc(Nc3cc(-c4[nH]c(SC)nc4C)ccn3)cc2)c1`, the % of control in [1] (at 1 µM) came to 77%; in experiment [1] (at 5 µM), 43%. `CN(C)C/C=C/C(=O)Nc1ccc(C(=O)N2CCCC(Nc3ncc(Cl)c(-c4c[nH]c5ccccc45)n3)C2)cc1` (stereo not given) had a % of control in [2] of 92%. Turning to `CCC(=O)N1CCN(c2ccc(-n3c(=O)ccc4cnc5ccc(-c6cnc7ccccc7c6)cc5c43)cc2C(F)(F)F)CC1`, in experiment [3], the % of control amounted to 96%. In the case of `N#Cc1cccc(-c2c[nH]c3ncnc(N4CCOCC4)c23)c1`, the % of control was found to be 75% in [4] and 85% in experiment [5]. Take `C=CC(=O)Nc1ccc(C(=O)Nc2[nH]nc3c2CN(C(=O)N[C@H](CN(C)C)c2ccccc2)C3(C)C)cc1`: the % of engagement in experiment [6] was -12.9%. Regarding `O[C@H]1CC[C@H](Nc2ncc3nc(Nc4c(F)cc(F)cc4F)n([C@H]4CCOC4)c3n2)CC1`, the results for the % of control in experiment [7], in experiment [8] and in experiment [9] were 83%, 100% and 86%, respectively.
